According to US20240269139A1, “COMPOUNDS FOR TARGETED PROTEIN DEGRADATION OF KINASES” (DANA-FARBER CANCER INSTITUTE, INC., priority 2020, published 2024):
Where “and” joins values, the source holds several entries; their conditions need not be identical. Identical values can stand only once. Like-named read-outs stand apart in the source and are kept apart here.

Columns and labels:
Type in all cases: cell-based
[1] = target: T1, protein kinases (human kinome) (Homo sapiens, UniProt O75385); details: for logFC: ULK1 (O75385) protein abundance, degrader vs DMSO, down; for logFC ULK1: ULK1 O75385, experiment wp160
T1 sequence (O75385 1-1050): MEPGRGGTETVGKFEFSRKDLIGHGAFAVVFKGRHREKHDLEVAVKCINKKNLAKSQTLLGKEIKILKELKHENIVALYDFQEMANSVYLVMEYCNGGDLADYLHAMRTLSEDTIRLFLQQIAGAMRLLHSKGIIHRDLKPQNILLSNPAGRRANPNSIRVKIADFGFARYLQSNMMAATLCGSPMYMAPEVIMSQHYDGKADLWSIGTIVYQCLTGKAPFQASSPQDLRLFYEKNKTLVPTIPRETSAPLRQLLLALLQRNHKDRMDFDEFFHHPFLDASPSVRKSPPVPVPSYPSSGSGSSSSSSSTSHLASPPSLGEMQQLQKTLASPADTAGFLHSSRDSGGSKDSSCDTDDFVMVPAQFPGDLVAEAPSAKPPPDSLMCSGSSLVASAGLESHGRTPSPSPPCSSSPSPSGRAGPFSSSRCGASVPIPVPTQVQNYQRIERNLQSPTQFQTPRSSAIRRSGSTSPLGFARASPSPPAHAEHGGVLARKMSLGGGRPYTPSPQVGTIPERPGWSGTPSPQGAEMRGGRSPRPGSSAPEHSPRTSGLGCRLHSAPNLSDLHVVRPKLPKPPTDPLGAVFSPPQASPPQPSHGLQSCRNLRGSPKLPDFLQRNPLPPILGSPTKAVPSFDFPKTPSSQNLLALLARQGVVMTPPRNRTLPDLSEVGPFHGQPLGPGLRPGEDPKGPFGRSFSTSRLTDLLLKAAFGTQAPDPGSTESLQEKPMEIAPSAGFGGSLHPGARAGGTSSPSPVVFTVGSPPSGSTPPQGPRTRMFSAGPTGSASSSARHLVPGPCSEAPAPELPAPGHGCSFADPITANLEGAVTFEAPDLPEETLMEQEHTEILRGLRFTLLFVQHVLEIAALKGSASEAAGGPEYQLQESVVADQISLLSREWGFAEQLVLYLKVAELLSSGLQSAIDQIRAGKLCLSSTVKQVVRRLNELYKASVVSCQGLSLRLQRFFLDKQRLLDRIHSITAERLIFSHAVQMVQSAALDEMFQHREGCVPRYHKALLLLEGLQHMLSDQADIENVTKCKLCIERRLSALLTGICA

[2] = target: protein kinases (human kinome) (Homo sapiens, UniProt P30291)
Chain of protein kinases (human kinome) (Homo sapiens, UniProt P30291) (P30291 whole entry): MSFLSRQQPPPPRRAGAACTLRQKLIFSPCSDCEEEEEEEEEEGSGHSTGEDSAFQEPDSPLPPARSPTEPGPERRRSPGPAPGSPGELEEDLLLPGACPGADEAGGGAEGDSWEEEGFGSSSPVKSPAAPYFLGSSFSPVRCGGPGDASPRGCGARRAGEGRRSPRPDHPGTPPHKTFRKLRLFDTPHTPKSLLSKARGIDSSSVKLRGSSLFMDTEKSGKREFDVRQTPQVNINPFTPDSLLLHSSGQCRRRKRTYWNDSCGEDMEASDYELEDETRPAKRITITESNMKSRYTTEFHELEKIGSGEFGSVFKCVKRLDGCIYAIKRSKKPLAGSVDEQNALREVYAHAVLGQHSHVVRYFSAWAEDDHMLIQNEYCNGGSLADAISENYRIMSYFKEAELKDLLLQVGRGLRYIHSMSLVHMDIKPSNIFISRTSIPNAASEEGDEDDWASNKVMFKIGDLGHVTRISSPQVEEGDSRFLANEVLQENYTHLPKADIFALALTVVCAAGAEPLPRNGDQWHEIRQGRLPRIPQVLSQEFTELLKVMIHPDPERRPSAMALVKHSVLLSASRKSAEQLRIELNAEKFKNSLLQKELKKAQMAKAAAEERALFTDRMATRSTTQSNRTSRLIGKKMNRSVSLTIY

[3] = target: protein kinases (human kinome) (Homo sapiens, UniProt Q9H0K1); details: for logFC of SIK2: Accession Q9H0K1; for logFC SIK2 (Q9H0K1): direction of change down
Chain of protein kinases (human kinome) (Homo sapiens, UniProt Q9H0K1) (Q9H0K1 whole entry): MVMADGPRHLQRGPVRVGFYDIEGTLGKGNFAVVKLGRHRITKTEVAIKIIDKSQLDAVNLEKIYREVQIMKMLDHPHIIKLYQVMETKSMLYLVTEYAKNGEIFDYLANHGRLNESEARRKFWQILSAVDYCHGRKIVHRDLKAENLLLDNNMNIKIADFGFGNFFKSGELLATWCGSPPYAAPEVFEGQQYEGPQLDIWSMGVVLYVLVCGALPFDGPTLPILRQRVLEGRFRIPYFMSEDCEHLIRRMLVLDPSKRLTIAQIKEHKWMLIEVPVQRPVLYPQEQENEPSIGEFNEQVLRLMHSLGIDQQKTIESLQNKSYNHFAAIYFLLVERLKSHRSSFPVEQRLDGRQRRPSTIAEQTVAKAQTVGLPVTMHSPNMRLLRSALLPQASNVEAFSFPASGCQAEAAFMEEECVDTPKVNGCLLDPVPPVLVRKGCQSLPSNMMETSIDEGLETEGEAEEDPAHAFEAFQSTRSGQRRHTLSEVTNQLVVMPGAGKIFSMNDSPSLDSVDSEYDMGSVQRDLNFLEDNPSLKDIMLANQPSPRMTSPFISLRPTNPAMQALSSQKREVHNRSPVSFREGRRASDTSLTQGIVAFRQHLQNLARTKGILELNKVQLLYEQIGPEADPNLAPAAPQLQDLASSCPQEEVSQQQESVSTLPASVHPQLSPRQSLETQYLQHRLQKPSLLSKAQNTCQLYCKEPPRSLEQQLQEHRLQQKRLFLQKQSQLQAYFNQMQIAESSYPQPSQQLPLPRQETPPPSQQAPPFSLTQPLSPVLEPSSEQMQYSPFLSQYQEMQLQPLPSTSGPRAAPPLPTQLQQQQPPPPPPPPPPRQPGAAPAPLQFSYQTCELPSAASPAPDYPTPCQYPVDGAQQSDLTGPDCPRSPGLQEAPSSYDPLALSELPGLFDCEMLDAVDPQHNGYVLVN

[4] = tested on: protein kinases (human kinome); details: for logFC of SRC: Accession P12931-2; for logFC of FER: FER P16591-3; for logFC LCK: accession P06239-3; for logFC PTK2B: accession Q14289-2
[5] = Experiment wp107, direction down
[6] = Experiment wp117, direction down
[7] = experiment wp045, direction of change down
[8] = experiment wp103, direction of change down
[9] = experiment wp107, direction of change down
[10] = experiment wp117, direction of change down

Compound: Cc1ccc(NC(=O)c2cccc(C(F)(F)F)c2)cc1N1Cc2cnc(Nc3ccc(N4CCN(Cc5cn(CCCCCOc6cccc7c6C(=O)N(C6CCC(=O)NC6=O)C7=O)nn5)CC4)nc3)nc2N(C)C1=O (stereo not drawn) [DB0646, N-(3-(7-((6-(4-((1-(5-((2-(2,6-Dioxopiperidin-3-yl)-1,3-dioxoisoindolin-4-yl)oxy)pentyl)-1H-1,2,3-triazol-4-yl)methyl)piperazin-1-v)pyridin-3-yl)amino)-1-methyl-2-oxo-1,4-dihydropyrimido[4,5-d]pyrimidin-3(2H)-yl)-4-methylphenyl)-3-(trifluoromethyl)benzamide]
- logFC ([1]; 4 hr): −0.3412
- logFC ([1]; 8 hr): −0.3989
- logFC ULK1 ([1]; 4 hr): −0.3412
- logFC ULK1 ([1]; 8 hr): −0.3989
- logFC of WEE1 ([2]; WEE1 P30291-1, experiment wp160, 8 hr): −0.352
- logFC WEE1 (P30291-1) ([2]; experiment wp160, 8 hr): −0.352
- logFC of SIK2 ([3]; experiment wp045): −0.638
- logFC of SIK2 ([3]; experiment wp107): −0.5933
- logFC of SIK2 ([3]; experiment wp114): −0.4347
- logFC of SIK2 ([3]; experiment wp117): −0.4315
- logFC of SIK2 ([3]; experiment wp160, 4 hr): −0.5421
- logFC of SIK2 ([3]; experiment wp160, 8 hr): −0.5707
- logFC SIK2 (Q9H0K1) ([3]; Experiment wp114): −0.4347
- logFC SIK2 ([3]; SIK2 (Q9H0K1), experiment wp045, down): −0.638
- logFC SIK2 (Q9H0K1) ([3]; experiment wp107): −0.5933
- logFC SIK2 (Q9H0K1) ([3]; experiment wp117): −0.4315
- logFC SIK2 (Q9H0K1) ([3]; experiment wp160, 4 hr): −0.5421
- logFC SIK2 (Q9H0K1) ([3]; experiment wp160, 8 hr): −0.5707
- logFC FYN ([4]; Accession P06241-2, experiment wp107): −0.3999
- logFC FYN ([4]; Accession P06241-2, experiment wp160, 4 hr): −0.3922
- logFC of SRC ([4]; experiment wp045): −0.4152
- logFC of SRC ([4]; experiment wp105): −0.4412
- logFC of SRC ([4]; experiment wp107): −0.4274
- logFC of SRC ([4]; experiment wp117): −0.3839
- logFC ([4]; CDK11B P21127-3, experiment wp103): −0.3334
- logFC MAP3K20 (Q9NYL2-2) ([4]; Experiment wp045): −1.182
- logFC MAPK8 (P45983-4) ([4]; Experiment wp045, direction down): −0.9774
- logFC MAP3K20 (Q9NYL2-2) ([4]; Experiment wp103): −0.7004
- logFC of MAPK8 (P45983-2) ([4]; Experiment wp103): −0.6109
- logFC MAPK8 (P45983-2) ([4]; Experiment wp103, direction down): −0.6109
- logFC MAPK8 (P45983-3) ([4]; Experiment wp105, direction down): −0.4094
- logFC MAP3K20 (Q9NYL2-2) ([4]; Experiment wp107): −0.7825
- logFC of MAPK8 (P45983-2) ([4]; Experiment wp107): −0.723
- logFC MAPK8 (P45983-2) [4, 5]: −0.723
- logFC TNK2 (Q07912-3) [4, 5]: −0.8258
- logFC MAP3K20 (Q9NYL2-2) ([4]; Experiment wp114): −0.8962
- logFC MAP3K20 (Q9NYL2-2) ([4]; Experiment wp117): −0.6701
- logFC of MAPK8 (P45983-2) ([4]; Experiment wp117): −0.7835
- logFC MAPK8 (P45983-2) [4, 6]: −0.7835
- logFC TNK2 (Q07912-3) [4, 6]: −0.9833
- logFC MAPK8 (P45983-3) ([4]; Experiment wp160, 4 hr, direction down): −0.611
- logFC MAPK8 (P45983-3) ([4]; Experiment wp160, 8 hr, direction down): −1.01
- logFC ([4]; FER (P16591-3), experiment wp114, direction down): −0.5921
- logFC ([4]; FER (P16591-3), experiment wp172, direction down): −1.014
- logFC of FER ([4]; experiment wp114): −0.5921
- logFC of FER ([4]; experiment wp172): −1.014
- logFC FYN ([4]; FYN P06241-2, experiment wp107): −0.3999
- logFC FYN ([4]; FYN P06241-2, experiment wp160, 4 hr): −0.3922
- logFC ([4]; GK P32189-3, experiment wp114): −0.3632
- logFC LCK [4, 7]: −0.5631
- logFC LCK [4, 8]: −0.4496
- logFC LCK [4, 9]: −0.3963
- logFC LCK [4, 10]: −0.4202
- logFC ([4]; LIMK2 (P53671-3), experiment wp105, direction down): −0.7299
- logFC of LIMK2 ([4]; LIMK2 P53671-3, experiment wp105): −0.7299
- logFC ([4]; LYN (P07948-2), experiment wp105): −0.985
- logFC MAPK8 ([4]; MAPK8 P45983-4, experiment wp045): −0.9774
- logFC MAPK14 ([4]; MAPK14, accession Q16539-2, experiment wp105, direction of change down): −0.5822
- logFC MAPK14 ([4]; MAPK14, accession Q16539-2, experiment wp117, direction of change down): −0.6436
- logFC MAPK14 ([4]; MAPK14, accession Q16539-2, experiment wp160, 4 hr, direction of change down): −0.7051
- logFC MAPK14 ([4]; MAPK14, accession Q16539-2, experiment wp160, 8 hr, direction of change down): −1.092
- logFC MAPK14 ([4]; MAPK14 Q16539-2, experiment wp105): −0.5822
- logFC MAPK14 ([4]; MAPK14 Q16539-2, experiment wp117): −0.6436
- logFC MAPK14 ([4]; MAPK14 Q16539-2, experiment wp160, 4 hr): −0.7051
- logFC MAPK14 ([4]; MAPK14 Q16539-2, experiment wp160, 8 hr): −1.092
- targets with significantly different degrader efficacy in the different cell lines with no obvious difference in protein expression ([4]; MOLT-4, KELLY, HEK293T): CSK, MAPK9
- logFC ([4]; PTK2B (Q14289-2), experiment wp107, direction down): −2.484
- logFC ([4]; PTK2B (Q14289-2), experiment wp117, direction down): −2.583
- logFC PTK2B [4, 9]: −2.484
- logFC PTK2B [4, 10]: −2.583
- logFC ([4]; SRC (P12931-2) protein abundance, degrader vs DMSO, down): −0.4152 and −0.4412 and −0.4274 and −0.3839
- logFC ([4]; TAOK2 (Q9UL54-2), experiment wp160, 8 hr): −0.5973
- logFC ([4]; TNK2 (Q07912-3), experiment wp107, direction down): −0.8258
- logFC ([4]; TNK2 (Q07912-3), experiment wp117, direction down): −0.9833
- logFC MAP3K20 (Q9NYL2-2) ([4]; experiment wp045): −1.182
- logFC LCK (P06239-3) [4, 7]: −0.5631
- logFC MAP3K20 (Q9NYL2-2) ([4]; experiment wp103): −0.7004
- logFC CDK11B (P21127-3) [4, 8]: −0.3334
- logFC LCK (P06239-3) [4, 8]: −0.4496
- logFC of LYN (P07948-2) ([4]; experiment wp105): −0.985
- logFC of MAPK8 (P45983-3) ([4]; experiment wp105): −0.4094
- logFC MAP3K20 (Q9NYL2-2) ([4]; experiment wp107): −0.7825
- logFC LCK (P06239-3) [4, 9]: −0.3963
- logFC MAP3K20 (Q9NYL2-2) ([4]; experiment wp114): −0.8962
- logFC MAP3K20 (Q9NYL2-2) ([4]; experiment wp117): −0.6701
- logFC LCK (P06239-3) [4, 10]: −0.4202
- logFC of MAPK8 (P45983-3) ([4]; experiment wp160, 4 hr): −0.611
- logFC of MAPK8 (P45983-3) ([4]; experiment wp160, 8 hr): −1.01
- logFC TAOK2 (Q9UL54-2) ([4]; experiment wp160, 8 hr, direction of change down): −0.5973
- Total no. kinase hits ([4]; number of degraded kinases per library compound): 33
